Experimental data taken from patent publication US12583884B2, “3beta-(benzyloxy)-17alpha-methyl-pregn-5-en-20-one for use in the treatment of cognitive disorders” (AELIS FARMA, priority 2018, dated 2026).
Read-outs that look alike come from different tables or passages of the source.

How the values were obtained:
[1] = biological target: T1, Transporters Serotonin 5-HT trans. (Homo sapiens, UniProt P31645); assay: CEREP binding profile: 5-HT trans.
T1 construct: CEREP (contract panel)
Excerpt: (§1) The CEREP High-throughput profile consists of a broad collection of 80 transmembrane and soluble receptors, ion channels and G-Protein coupled receptors.

Glutamate PCP = assay: CEREP binding profile: PCP; details: 10 μM
Excerpt: as §1

Serotonin 5-HT1A = biological target: T2, Serotonin 5-HT1A (Homo sapiens, UniProt P08908); assay: CEREP binding profile: 5-HT1A
T2 construct: CEREP (contract panel)
Excerpt: as §1

Dopamine D2S = biological target: T3, Dopamine D2S (Homo sapiens, UniProt P14416); assay: CEREP binding profile: D2S
T3 construct: CEREP
Excerpt: as §1

Prostanoid EP4 = Prostanoid EP4 (Homo sapiens, UniProt P35408); assay: CEREP binding profile: EP4
Excerpt: as §1

Melatonin MT1 (ML1A) = Melatonin MT1 (ML1A) (Homo sapiens, UniProt P48039); assay: CEREP binding profile: MT1
Excerpt: as §1

Purinergic channels P2X = assay: CEREP binding profile: P2X; details: 10 μM
Excerpt: as §1

[2] = biological target: T4, Non-steroid nuclear receptors PPAR gamma (Homo sapiens, UniProt P37231); assay: CEREP binding profile: PPAR gamma
T4 construct: CEREP
Excerpt: as §1

Serotonin 5-HT7 = biological target: T5, Serotonin 5-HT7 (Homo sapiens, UniProt P34969); assay: CEREP binding profile: 5-HT7
T5 construct: CEREP (contract panel)
Excerpt: as §1

[3] = tested on: 19 to 22-month-old C57B1/6J mice; assay: Declarative/relational memory (radial maze flexibility test), aged mice; assay type: in vivo, mouse; details: 0.6 μg/ml in drinking water, chance level 50%
Procedure: The relational memory task was performed using 8-arm radial mazes described in Example 3b. Food restriction and habituation procedures were performed as described in Example 3b. Acquisition began 24 h after the last habituation session. The acquisition stage consisted in learning the positions of the food pellets within the maze. […] One arm of each pair contained reward at its end, the other arm of each pair was not baited.
Acquisition is based on a go-no go procedure. The arms are presented one by one. Subjects are expected to visit the rewarded arms faster than the non-rewarded arms. At the beginning of each daily session, the mouse was placed at the center of the maze with no access to the arms. The doors of the first arm then opened. […] The door of an arm then open immediately after (0-sec inter-trial interval). […] Each daily session contained 40 successive arm presentations (i.e. trials) organized into two distinct temporal sequences. In the first sequence (20 trials), four arms of the maze were presented alternatively (two baited and two non-baited). Consecutively, the second sequence started (20 trials); the four other arms of the maze were presented alternatively (two baited and two non-baited). […]
At each trial, the latency to visit the arm is measured. […]
Flexibility of learning was evaluated in the following conditions. […]
The percentage of correct responses for each pair was measured. […]

[4] = tested on: primary culture of rat hepatocytes; assay: Hepatotoxicity in primary culture of hepatocytes; assay type: cell-based; details: 0.1 to 100 μM; 48 hours
Procedure: The percentage of cytolysed hepatocytes over time was determined by time lapse imaging with a fluorescent cytolysis marker. The number of bile canaliculi after 48 hours of treatment was determined using a fluorescent bile salt analog.
Primary rat hepatocytes from 10-12 weeks old Wistar rats were isolated using a two-step collagenase perfusion method. After 24 hours, cells were covered with a layer of Matrigel to perform a sandwich configuration culture. […] Cells were then stained using a fluorescent bile salt analog to measure the bile canaliculi network state and the Bsep pump activity. Acetaminophen (30 mM) and Cyclosporin A (1 μM) were added as positive controls of hepatotoxicity and biliary canaliculi loss, respectively.

[5] = biological target: T6, Steroid nuclear receptors GR (Homo sapiens, UniProt P04150); assay: CEREP binding profile: GR
T6 construct: CEREP
Excerpt: as §1

[6] = Anxiety-like behaviors in the elevated plus maze; assay type: in vivo, mouse
Excerpt: The EPM apparatus was made of grey polyvinyl chloride and consisted of four elevated arms. The arms (height, 60 cm; length, 37 cm; width, 6 cm; each) were arranged in a cross-like disposition, with two opposite arms being enclosed by walls and the two other arms being open. A video camera placed on the top of the maze and connected to a tracking system allowed the automatic scoring of the locomotion of the mice in the maze. The light intensity of the maze was set at 45 lux in the open arms. One mouse was placed in the center of the EPM and was then free to explore the entire maze for 5 minutes. The time spent and the number of entries into the open arms and closed arms were measured. A decrease in the percentages of visits and/or of the time spent in open arms reflects an increase in anxiety levels.
Rimonabant was dissolved in a vehicle containing DMSO, (2%), Tween80 (2%) in injectable NaCl 0.9%. Within the same study, the effect of intraperitoneal injection of rimonabant at 10 mg/kg or of vehicle alone (10 ml/kg) was studied in the EPM in 2-month-old male C57B1/6J mice (n=10 per group). The EPM test was performed 30 minutes after rimonabant injection.

in vivo [7] = details: both, Sprague-Dawley, rat, 20 mg/kg
Procedure: Blood samples for plasma drug analysis were collected after the last treatment, at 5 and 24 hours post-dose. Quantification was done by LC/MS-MS chromatography.

in vivo [8] = details: Ts65Dn and WT, mouse
Excerpt: At the end of the behavioral study, mice were sacrificed, blood and brain samples were collected.

Prostanoid EP4, sequence (P35408 whole entry): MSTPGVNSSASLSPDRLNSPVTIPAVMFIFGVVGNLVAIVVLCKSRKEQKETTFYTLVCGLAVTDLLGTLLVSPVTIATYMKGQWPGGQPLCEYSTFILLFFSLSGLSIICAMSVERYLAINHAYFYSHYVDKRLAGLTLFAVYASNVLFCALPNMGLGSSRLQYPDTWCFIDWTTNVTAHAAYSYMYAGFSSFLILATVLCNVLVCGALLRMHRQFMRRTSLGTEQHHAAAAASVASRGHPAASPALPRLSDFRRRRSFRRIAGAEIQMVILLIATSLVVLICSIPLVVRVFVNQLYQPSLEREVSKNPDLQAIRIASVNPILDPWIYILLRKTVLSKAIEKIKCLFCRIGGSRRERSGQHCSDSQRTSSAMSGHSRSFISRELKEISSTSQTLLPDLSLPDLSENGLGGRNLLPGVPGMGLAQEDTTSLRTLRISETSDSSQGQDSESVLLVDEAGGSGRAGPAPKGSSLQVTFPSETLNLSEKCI
T4 sequence (P37231 whole entry): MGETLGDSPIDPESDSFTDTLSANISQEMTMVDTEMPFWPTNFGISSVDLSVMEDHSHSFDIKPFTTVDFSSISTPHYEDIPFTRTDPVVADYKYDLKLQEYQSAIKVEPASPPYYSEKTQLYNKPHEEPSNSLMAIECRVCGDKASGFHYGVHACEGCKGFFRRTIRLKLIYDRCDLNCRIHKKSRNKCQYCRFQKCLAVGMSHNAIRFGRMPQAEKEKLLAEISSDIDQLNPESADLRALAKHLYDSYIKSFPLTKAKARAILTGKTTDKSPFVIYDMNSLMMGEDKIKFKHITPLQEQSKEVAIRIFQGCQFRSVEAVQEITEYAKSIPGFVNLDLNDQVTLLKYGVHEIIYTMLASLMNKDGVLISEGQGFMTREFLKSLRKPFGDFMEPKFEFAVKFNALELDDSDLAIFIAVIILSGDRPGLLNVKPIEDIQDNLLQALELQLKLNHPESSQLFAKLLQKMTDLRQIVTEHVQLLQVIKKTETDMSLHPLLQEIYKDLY
Melatonin MT1 (ML1A), sequence (P48039 whole entry): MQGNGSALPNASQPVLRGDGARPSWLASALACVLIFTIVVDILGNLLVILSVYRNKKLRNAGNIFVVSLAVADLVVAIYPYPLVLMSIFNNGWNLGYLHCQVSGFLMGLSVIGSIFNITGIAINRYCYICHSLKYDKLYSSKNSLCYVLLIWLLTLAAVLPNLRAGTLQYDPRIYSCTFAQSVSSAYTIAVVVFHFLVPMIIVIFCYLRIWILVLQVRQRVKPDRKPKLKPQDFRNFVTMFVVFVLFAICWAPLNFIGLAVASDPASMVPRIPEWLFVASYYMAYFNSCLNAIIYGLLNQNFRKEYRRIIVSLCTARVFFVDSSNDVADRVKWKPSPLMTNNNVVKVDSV
T3 sequence (P14416 1-414 isoform P14416-2): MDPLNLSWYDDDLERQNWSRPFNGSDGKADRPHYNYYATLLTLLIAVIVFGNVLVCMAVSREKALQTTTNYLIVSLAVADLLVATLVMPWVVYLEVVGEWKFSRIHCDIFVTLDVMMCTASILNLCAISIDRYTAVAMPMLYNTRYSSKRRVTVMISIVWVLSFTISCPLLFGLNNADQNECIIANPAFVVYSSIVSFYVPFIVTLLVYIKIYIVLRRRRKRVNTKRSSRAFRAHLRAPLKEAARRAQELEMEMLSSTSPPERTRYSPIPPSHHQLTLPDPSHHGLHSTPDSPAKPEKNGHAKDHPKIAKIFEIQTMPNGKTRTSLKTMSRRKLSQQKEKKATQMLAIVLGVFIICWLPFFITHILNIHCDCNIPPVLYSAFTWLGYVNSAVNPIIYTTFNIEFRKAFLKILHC
T5 sequence (P34969 whole entry): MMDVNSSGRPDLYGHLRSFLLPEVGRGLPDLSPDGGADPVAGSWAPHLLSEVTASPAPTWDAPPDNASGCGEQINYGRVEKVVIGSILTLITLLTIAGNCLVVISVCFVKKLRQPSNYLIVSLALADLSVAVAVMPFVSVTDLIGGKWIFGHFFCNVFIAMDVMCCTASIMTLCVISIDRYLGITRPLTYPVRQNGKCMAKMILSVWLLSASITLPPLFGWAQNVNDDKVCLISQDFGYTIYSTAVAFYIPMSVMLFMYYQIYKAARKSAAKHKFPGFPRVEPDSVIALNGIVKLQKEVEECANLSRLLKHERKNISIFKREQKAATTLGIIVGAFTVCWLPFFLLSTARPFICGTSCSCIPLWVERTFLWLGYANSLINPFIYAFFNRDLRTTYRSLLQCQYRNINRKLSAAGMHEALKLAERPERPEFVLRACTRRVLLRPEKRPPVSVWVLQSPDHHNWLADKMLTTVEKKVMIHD
T1 sequence (P31645 whole entry): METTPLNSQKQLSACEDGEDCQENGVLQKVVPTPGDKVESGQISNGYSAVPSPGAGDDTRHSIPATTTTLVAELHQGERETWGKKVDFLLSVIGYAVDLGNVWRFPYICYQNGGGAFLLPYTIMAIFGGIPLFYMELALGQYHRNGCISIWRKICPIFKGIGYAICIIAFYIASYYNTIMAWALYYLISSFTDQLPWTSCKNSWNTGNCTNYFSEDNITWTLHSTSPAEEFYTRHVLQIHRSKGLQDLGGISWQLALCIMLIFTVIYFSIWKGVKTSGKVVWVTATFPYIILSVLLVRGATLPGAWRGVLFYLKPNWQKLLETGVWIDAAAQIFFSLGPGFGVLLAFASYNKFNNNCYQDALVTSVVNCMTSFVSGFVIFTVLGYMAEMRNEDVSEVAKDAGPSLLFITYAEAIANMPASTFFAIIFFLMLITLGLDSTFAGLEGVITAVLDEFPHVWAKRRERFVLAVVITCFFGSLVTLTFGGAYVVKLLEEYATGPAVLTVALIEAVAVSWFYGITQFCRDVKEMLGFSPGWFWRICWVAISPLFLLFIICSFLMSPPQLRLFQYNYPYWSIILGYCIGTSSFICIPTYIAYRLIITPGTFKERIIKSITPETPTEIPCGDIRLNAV
T2 sequence (P08908 whole entry): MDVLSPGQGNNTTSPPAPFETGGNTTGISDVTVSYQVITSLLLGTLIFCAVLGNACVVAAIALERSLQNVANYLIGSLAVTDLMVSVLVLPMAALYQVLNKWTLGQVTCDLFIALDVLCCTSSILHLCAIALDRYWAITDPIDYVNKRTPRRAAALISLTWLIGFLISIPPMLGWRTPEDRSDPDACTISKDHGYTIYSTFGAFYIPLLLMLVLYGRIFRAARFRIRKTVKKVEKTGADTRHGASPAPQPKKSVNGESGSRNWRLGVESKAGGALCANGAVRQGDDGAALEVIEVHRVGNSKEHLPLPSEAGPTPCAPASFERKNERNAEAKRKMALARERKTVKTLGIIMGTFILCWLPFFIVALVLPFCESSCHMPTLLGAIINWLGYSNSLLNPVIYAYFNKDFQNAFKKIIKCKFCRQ
T6 sequence (P04150 whole entry): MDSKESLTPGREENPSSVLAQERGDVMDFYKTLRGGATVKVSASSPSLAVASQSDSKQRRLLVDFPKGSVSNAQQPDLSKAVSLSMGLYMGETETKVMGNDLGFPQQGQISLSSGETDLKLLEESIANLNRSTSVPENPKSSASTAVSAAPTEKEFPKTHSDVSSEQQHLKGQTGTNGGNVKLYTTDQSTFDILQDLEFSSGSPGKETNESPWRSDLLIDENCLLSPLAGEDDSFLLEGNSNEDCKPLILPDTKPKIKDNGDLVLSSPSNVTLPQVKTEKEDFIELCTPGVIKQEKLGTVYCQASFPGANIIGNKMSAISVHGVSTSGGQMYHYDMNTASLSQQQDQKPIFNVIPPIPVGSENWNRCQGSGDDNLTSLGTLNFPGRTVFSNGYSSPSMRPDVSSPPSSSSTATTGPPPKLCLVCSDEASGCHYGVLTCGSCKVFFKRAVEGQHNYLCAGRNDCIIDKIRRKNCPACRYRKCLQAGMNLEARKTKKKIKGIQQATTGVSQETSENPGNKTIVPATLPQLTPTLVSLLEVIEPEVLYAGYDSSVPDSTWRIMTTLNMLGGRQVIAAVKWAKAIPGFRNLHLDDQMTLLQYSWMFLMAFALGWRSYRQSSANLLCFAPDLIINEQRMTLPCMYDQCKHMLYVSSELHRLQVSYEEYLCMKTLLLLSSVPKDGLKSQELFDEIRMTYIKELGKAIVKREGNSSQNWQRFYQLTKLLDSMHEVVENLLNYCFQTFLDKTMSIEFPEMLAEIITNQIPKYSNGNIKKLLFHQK

What does the source list for CC(=O)[C@H]1CC[C@H]2[C@@H]3CC=C4C[C@@H](O)CC[C@]4(C)[C@H]3CC[C@]12C [pregnenolone, reference compound]?
inhibition at 10 µM ([1]; 5-HT trans., 10 μM, read-out: % Inhibition): 1%; Inhibition % (Glutamate PCP): 5%; inhibition at 10 µM (Serotonin 5-HT1A): 12%; inhibition at 10 µM (Dopamine D2S): 5%; inhibition at 10 µM (Prostanoid EP4): 21%; inhibition at 10 µM (Melatonin MT1 (ML1A)): 26%; Inhibition % (Purinergic channels P2X): 13%; inhibition at 10 µM [2]: 4%; inhibition at 10 µM (Serotonin 5-HT7): 11%

Which results are given for CC(=O)[C@@]1(C)CC[C@H]2[C@@H]3CC=C4C[C@@H](OCc5ccccc5)CC[C@]4(C)[C@H]3CC[C@@]21C [3Bn17MeP, 3β-benzyloxy, 17α-methyl-pregn-5-en-20-one]?
inhibition at 10 µM [1]: 1%; Inhibition % (Glutamate PCP): 5%; % Inhibition (Serotonin 5-HT1A; 10 μM): 25%; Correct responses in the flexibility test (choice accuracy) [3]: more than 70%; % Inhibition (Dopamine D2S; 10 μM): 6%; Hepatotoxic effect (hepatocyte survival) [4]: no hepatotoxic effect; inhibition at 10 µM (Prostanoid EP4): 25%; inhibition at 10 µM (Melatonin MT1 (ML1A)): -8%; inhibition at 10 µM [5]: -2%; Inhibition % (Purinergic channels P2X): 8%; Percentage of time spent and of visits in the open arms ([6]; acute 30 mg/kg per os, 3 hours after administration): had no effect; Effect: increase in anxiety-like behaviors (acute administration) ([6]; male mice, highest dose tested 30 mg/kg): No; concentration at 5 h (in vivo [7]): 4650 ng/mL; concentration at 24 h (in vivo [7]): 974 ng/mL; concentration at 1 month (in vivo [8]): 1.3 ng/mL; inhibition at 10 µM [2]: -12%; % Inhibition (Serotonin 5-HT7; 10 μM): 8%
